In ChEMBL document CHEMBL4308854, “Novel indole-thiazolidinone conjugates: Design, synthesis and whole-cell phenotypic evaluation as a novel class of antimicrobial agents” (Eur J Med Chem, 2018):
Values after ≈ are worked out from the molar mass of the structure shown.

Experiments:
Mycolicibacterium aurum = assay: Antitubercular activity against Mycobacterium aurum infected in mouse RAW264.7 cells measured after 48 hrs; format: functional
Staphylococcus aureus = assay: Antibacterial activity against methicillin-resistant Staphylococcus aureus ATCC 33592 after 24 hrs by serial dilution method; format: functional; conditions: ATCC 33592, 24 h
Enterococcus faecium = assay: Antibacterial activity against vancomycin-resistant Enterococcus faecium ATCC 700221 after 24 hrs by serial dilution method; format: functional; conditions: ATCC 700221, 24 h
HL-60(TB) = assay: Growth inhibition of human HL-60(TB) cells assessed as cell growth at 10^-5 M incubated for 48 hrs by sulforhodamine B assay relative to control; format: cell-based; set-up: scale not given: the % may be the effect or the level left; conditions: 10 µM
SR = assay: Growth inhibition of human SR cells assessed as cell growth at 10^-5 M incubated for 48 hrs by sulforhodamine B assay relative to control; format: cell-based; set-up: scale not given: the % may be the effect or the level left; conditions: 10 µM
SK-MEL-5 = assay: Growth inhibition of human SK-MEL-5 cells assessed as cell growth at 10^-5 M incubated for 48 hrs by sulforhodamine B assay relative to control; format: cell-based; set-up: scale not given: the % may be the effect or the level left; conditions: sk-mel-5, 48 h, 10 µM
786-0 = assay: Growth inhibition of human 786-0 cells assessed as cell growth at 10^-5 M incubated for 48 hrs by sulforhodamine B assay relative to control; format: cell-based; set-up: scale not given: the % may be the effect or the level left; conditions: 786-0, 48 h, 10 µM
UO-31 = assay: Growth inhibition of human UO31 cells assessed as cell growth at 10^-5 M incubated for 48 hrs by sulforhodamine B assay relative to control; format: cell-based; set-up: scale not given: the % may be the effect or the level left; conditions: uo-31, 48 h, 10 µM
Aspergillus fumigatus [1] = assay: Potency index, ratio of amphotericin B MIC to compound MIC for antifungal activity against Aspergillus fumigatus RCMB 02568; format: functional
Pseudomonas aeruginosa = assay: Potency index, ratio of ciprofloxacin MIC to compound MIC for Pseudomonas aeruginosa RCMB 010043; format: functional
Aspergillus fumigatus [2] = assay: Potency index, ratio of amphotericin B MIC to compound MIC for Aspergillus fumigatus RCMB 02568; format: functional
[3] = Stability in mouse RAW264.7 cells measured after 48 hrs; format: ADME, cell-based; conditions: raw264.7, 48 h

CC(=O)c1sc(/N=C2\NC(=O)/C(=C3/C(=O)N(C)c4ccc(Cl)cc43)S2)nc1C
MIC (Mycolicibacterium aurum): 25 µg/mL (≈ 57.7 µM)
MIC (Staphylococcus aureus): 3.9 µg/mL (≈ 9.01 µM)
MIC (Enterococcus faecium): 7.81 µg/mL (≈ 18 µM)
Activity (HL-60(TB)): 98.79%
Activity (SR): 115.03%
Activity (SK-MEL-5): 97.1%
Activity (786-0): 106.86%
Activity (UO-31): 90.16%
Ratio (Aspergillus fumigatus [1]): 2
Ratio (Pseudomonas aeruginosa): 4
Ratio (Aspergillus fumigatus [2]): 2
Stability [3]: Stable

CCOC(=O)c1sc(/N=C2\NC(=O)/C(=C3/C(=O)N(Cc4ccccc4)c4ccc(Cl)cc43)S2)nc1C
MIC (Mycolicibacterium aurum): 50 µg/mL (≈ 92.8 µM)
Activity (HL-60(TB)): 105.41%
Activity (SR): 102.18%
Activity (SK-MEL-5): 101.5%
Activity (786-0): 103.02%
Activity (UO-31): 91.72%
Ratio (Pseudomonas aeruginosa): 2
Stability [3]: Stable
